Laboratory results taken from PubChem BioAssay (NCI).
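Five compound concentrations were applied to cells in 96-well plates for 48 hours; endpoints were derived by simple linear interpolation of the resulting dose-response curve. GI50 marks 50% less growth. The concentration for full growth arrest is given as TGI.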

Columns and labels:
Assay in all cases: NCI tumour cell line growth inhibition, 48 h
[1] = tested on: 786-0 renal
[2] = tested on: CAKI-1 renal
[3] = tested on: COLO 205 colon
[4] = tested on: HL-60(TB) leukemia
[5] = tested on: OVCAR-3 ovarian
[6] = tested on: SK-MEL-5 melanoma
[7] = tested on: SNB-75 CNS
[8] = tested on: HT29 colon
[9] = tested on: NCI/ADR-RES ovarian
[10] = tested on: PC-3 prostate

Structure (SMILES)	TGI [1]	TGI [2]	TGI [3]	TGI [4]	TGI [5]	TGI [6]	TGI [7]	TGI [8]	TGI [9]	GI50 [1]	GI50 [4]	GI50 [8]	GI50 [9]	GI50 [5]	GI50 [10]	TGI [10]	GI50 [6]	GI50 [7]	GI50 [2]	GI50 [3]
O=C1CCC(=O)N1Sc1ccccc1	> 100 µM	> 100 µM	> 100 µM	> 100 µM	> 100 µM	> 100 µM	> 100 µM	–	–	–	–	–	–	–	–	–	–	–	–	–
COc1cc2c(c(OC)c1OC)C(=O)NCCC2	> 100 µM	> 100 µM	> 100 µM	> 63.1 µM	> 100 µM	> 100 µM	> 100 µM	> 100 µM	> 100 µM	–	–	–	–	–	–	–	–	–	–	–
COc1cc(-c2nn(-c3cccc(NC(=O)CCN4CCN(c5ccccc5)CC4)c3)cc2-c2ccncc2)ccc1Cl	4.23 µM	–	–	> 100 µM	9.73 µM	5.36 µM	> 100 µM	> 100 µM	> 100 µM	1.83 µM	3.63 µM	2.66 µM	3.18 µM	2.68 µM	3.1 µM	> 100 µM	2.19 µM	4.13 µM	–	–
Clc1ccc(CN2CCCN(Cc3ccc(Cl)cc3)C2c2cc3ccccc3c3ccccc23)cc1	> 100 µM	> 100 µM	40.3 µM	–	> 100 µM	32.7 µM	78.5 µM	> 100 µM	> 100 µM	–	–	–	–	–	–	> 100 µM	–	–	–	–
C1=CC2CCC1CN2CCC1CNc2ccccc21 (stereo not given)	> 100 µM	–	–	> 100 µM	> 100 µM	–	> 100 µM	> 100 µM	–	–	–	–	–	–	–	–	–	–	–	–
O=C1OC(=O)C([Se]c2ccccc2)=C1[Se]c1ccccc1	> 100 µM	> 100 µM	> 100 µM	> 100 µM	> 100 µM	> 100 µM	> 100 µM	> 100 µM	–	–	–	–	–	–	–	–	–	–	–	–
O=CN1N=C(c2cccc(Nc3ccnc4cc(Cl)ccc34)c2)CC1c1ccc(Cl)cc1 (stereo not given)	> 100 µM	> 100 µM	6.67 µM	3.81 µM	7.71 µM	10.6 µM	–	3.65 µM	3.94 µM	4.73 µM	1.1 µM	0.477 µM	0.759 µM	1.2 µM	–	–	1.86 µM	–	0.954 µM	1.39 µM
CCCCC1(C(NC(=O)c2ccccc2Cl)c2ccncc2)C(=O)N(c2ccccc2)N(c2ccccc2)C1=O (stereo not given)	> 100 µM	–	52.6 µM	40.8 µM	> 100 µM	60 µM	71.4 µM	> 100 µM	–	–	–	–	–	–	–	–	–	–	–	–
COc1cc(-c2nn(-c3cccc(NC(=O)CCNc4ccc(N5CCOCC5)cc4)c3)cc2-c2ccncc2)ccc1Cl	34.7 µM	–	–	> 100 µM	8.55 µM	4.89 µM	> 100 µM	33.4 µM	> 100 µM	2.87 µM	3.71 µM	2.84 µM	4.09 µM	2.45 µM	2.8 µM	31.4 µM	1.95 µM	4.22 µM	–	–
COCC(C(=O)OC1C/C=C/C=C/C(=O)OC(C(C)C(O)C(C)CCC(OC(=O)C(C)N(C)C)C(C)C(OC(C)=O)C(C)/C=C/N(C)C=O)C/C=C/C(OC)CC(C)C/C=C(\C)C(OC)CCC(C)C(O)C1C)N(C)C (stereo not given)	0.000845 µM	0.007 µM	–	< 0.0001 µM	0.00191 µM	0.00144 µM	0.0231 µM	–	0.000552 µM	< 0.0001 µM	< 0.0001 µM	–	< 0.0001 µM	< 0.0001 µM	< 0.0001 µM	> 1 µM	< 0.0001 µM	< 0.0001 µM	< 0.0001 µM	–
Nc1ccccc1C#Cc1ccccc1C#Cc1cccs1	31 µM	25.1 µM	–	> 100 µM	26.4 µM	22.3 µM	> 100 µM	49 µM	30.7 µM	16.3 µM	11 µM	19.4 µM	16 µM	13.1 µM	13.8 µM	33 µM	7.59 µM	82.7 µM	11 µM	–
CCCCCC[C@H]1C(=O)O[C@H](C)[C@H](NC(=O)c2cccc(NC=O)c2OC)C(=O)O[C@@H](C)[C@@H]1OC(=O)CCC (tested in a mixture with another compound)	27.1 µM	24.4 µM	26.7 µM	19.9 µM	24.9 µM	14.5 µM	–	45.6 µM	34.2 µM	13.1 µM	4.68 µM	5.98 µM	8.63 µM	11.1 µM	6.23 µM	26.7 µM	3.94 µM	–	9.71 µM	12.6 µM
Cc1ccc(OC(=O)N2C/C(=C\c3ccccc3)C(=O)/C(=C/c3ccccc3)C2)cc1	35.9 µM	> 100 µM	> 100 µM	15.6 µM	37.4 µM	> 57.3 µM	55.4 µM	35.6 µM	–	–	–	–	–	–	–	> 100 µM	–	–	–	–
O=C1C(=O)C2(CC1S(=O)(=O)c1ccccc1)c1ccccc1-c1ccccc12 (stereo not given)	82.5 µM	61.6 µM	26.1 µM	58 µM	> 10 µM	28.2 µM	> 100 µM	59.7 µM	–	–	–	–	–	–	–	–	–	–	–	–
Cc1ccc(S(=O)C(C)C(Cl)c2ccccc2)cc1 (stereo not given)	> 100 µM	> 100 µM	> 100 µM	–	> 100 µM	> 100 µM	> 100 µM	> 100 µM	–	–	–	–	–	–	–	–	–	–	–	–
COc1ccc(/C=N/NS(=O)(=O)c2ccccc2)cc1	> 100 µM	> 100 µM	> 100 µM	> 100 µM	> 100 µM	> 100 µM	> 100 µM	> 100 µM	–	–	–	–	–	–	–	–	–	–	–	–
COc1cc2c3c(n(CCCNCCCNCCCN)c(=O)c2cc1OC)-c1cc2c(cc1C3=O)OCO2	> 100 µM	> 100 µM	> 100 µM	> 100 µM	52.6 µM	> 100 µM	> 100 µM	> 100 µM	–	69.5 µM	> 100 µM	48.6 µM	–	0.879 µM	–	–	> 100 µM	12.8 µM	26.3 µM	46.1 µM
COc1ccc(Br)c(C(=O)N2CCc3ccccc32)c1N	> 100 µM	–	> 100 µM	> 100 µM	66.2 µM	> 100 µM	90.3 µM	> 100 µM	–	–	–	–	–	–	–	–	–	–	–	–
